Assay results published in patent US20200370087A1, “METHOD FOR DETERMINING MICROBIAL SUSCEPTIBILITY TO ANTIBIOTIC AGENTS” (Ascilion AB, priority 2017, published 2020).
In brackets after ≈: the same amount, converted by molar mass.

Tests used:
[1] = system: Escherichia coli (ATCC 25922); test: Glucose consumption susceptibility test, blood culture diluted in MHB with glucose (Example 1); type: cell-based; design: glucose concentration, t = 0 / glucose concentration, t = 60 / glucose concentration, t = 120 / glucose concentration, t = 180 / dC/dT (rate of change in glucose concentration) / glucose concentration, t = 240: unit not given here; details: for F = the rate of change in glucose concentration in relation to the reference / dC/dT (rate of change in glucose concentration) / glucose concentration, t = 0 / glucose concentration, t = 60 / glucose concentration, t = 120 / glucose concentration, t = 180 / glucose concentration, t = 240: E. coli; for glucose concentration, t = 0: 0 minutes; for glucose concentration, t = 60: 60 minutes; for glucose concentration, t = 120: 120 minutes; for glucose concentration, t = 180: 180 minutes; for glucose concentration, t = 240: 240 minutes
Description: (§1) Strains of Escherichia coli (ATCC 25922), Enterococcus faecalis (ATCC 29212) and Staphylococcus aureus (ATCC 29213) were inoculated in blood culture bottles (SVA, Uppsala, Sweden) and cultivated according to the manufacturer's instructions until positive.
(§2) Medium from each blood culture bottle was diluted 1:100 with cation adjusted Mueller-Hinton broth (SVA, Uppsala, Sweden) supplemented with glucose to a concentration of 1.0 mg/mL.
(§3) Glucose concentrations were measured at 0, 60, 120, 180, and 240 minutes using a WaveSense Jazz glucometer (AgaMatrix, Inc., Salem, N.H., USA) with accompanying test strips.
(§4) Susceptibility scores corresponding to MIC values were calculated as described above. A 80% threshold was applied, i.e. the lowest concentration of antibiotic that entailed a rate of change in glucose concentration that was equal to or less than 80% of the reference was selected as the Minimal Inhibitory Concentration. The rate of change was calculated between the measurements at 60 and 180 minutes.

[2] = system: Enterococcus faecalis (ATCC 29212); test: as above; type: cell-based; design: glucose concentration, t = 0 / glucose concentration, t = 60 / glucose concentration, t = 120 / glucose concentration, t = 180 / glucose concentration, t = 240 / dC/dT (rate of change in glucose concentration): unit not given here; details: E. faecalis; for glucose concentration, t = 0: 0 minutes; for glucose concentration, t = 60: 60 minutes; for glucose concentration, t = 120: 120 minutes; for glucose concentration, t = 180: 180 minutes; for glucose concentration, t = 240: 240 minutes
Description: as §1, §2, §3, §4

CO[C@@]1(NC(=O)Cc2cccs2)C(=O)N2C(C(=O)O)=C(COC(N)=O)CS[C@@H]21 [Cefoxitin, cefoxitin]
F = the rate of change in glucose concentration in relation to the reference ([1]; antibiotic 0.25 μg/mL): 165%
dC/dT (rate of change in glucose concentration) ([1]; antibiotic 0.25 μg/mL): 102
glucose concentration, t = 0 ([1]; antibiotic 0.25 μg/mL): 145
glucose concentration, t = 60 ([1]; antibiotic 0.25 μg/mL): 157
glucose concentration, t = 120 ([1]; antibiotic 0.25 μg/mL): 143
glucose concentration, t = 180 ([1]; antibiotic 0.25 μg/mL): 41
F = the rate of change in glucose concentration in relation to the reference ([1]; antibiotic 0.5 μg/mL): 139%
dC/dT (rate of change in glucose concentration) ([1]; antibiotic 0.5 μg/mL): 86
glucose concentration, t = 0 ([1]; antibiotic 0.5 μg/mL): 139
glucose concentration, t = 60 ([1]; antibiotic 0.5 μg/mL): 154
glucose concentration, t = 120 ([1]; antibiotic 0.5 μg/mL): 140
glucose concentration, t = 180 ([1]; antibiotic 0.5 μg/mL): 54
F = the rate of change in glucose concentration in relation to the reference ([1]; antibiotic 1 μg/mL): 129%
dC/dT (rate of change in glucose concentration) ([1]; antibiotic 1 μg/mL): 80
glucose concentration, t = 0 ([1]; antibiotic 1 μg/mL): 144
glucose concentration, t = 60 ([1]; antibiotic 1 μg/mL): 150
glucose concentration, t = 120 ([1]; antibiotic 1 μg/mL): 143
glucose concentration, t = 180 ([1]; antibiotic 1 μg/mL): 63
F = the rate of change in glucose concentration in relation to the reference ([1]; antibiotic 2 μg/mL): 102%
dC/dT (rate of change in glucose concentration) ([1]; antibiotic 2 μg/mL): 63
glucose concentration, t = 0 ([1]; antibiotic 2 μg/mL): 143
glucose concentration, t = 60 ([1]; antibiotic 2 μg/mL): 163
glucose concentration, t = 120 ([1]; antibiotic 2 μg/mL): 138
glucose concentration, t = 180 ([1]; antibiotic 2 μg/mL): 75
F = the rate of change in glucose concentration in relation to the reference ([1]; antibiotic 4 μg/mL): 19%
dC/dT (rate of change in glucose concentration) ([1]; antibiotic 4 μg/mL): 12
glucose concentration, t = 0 ([1]; antibiotic 4 μg/mL): 146
glucose concentration, t = 60 ([1]; antibiotic 4 μg/mL): 149
glucose concentration, t = 120 ([1]; antibiotic 4 μg/mL): 140
glucose concentration, t = 180 ([1]; antibiotic 4 μg/mL): 125
glucose concentration, t = 240 ([1]; antibiotic 4 μg/mL): 116
F = the rate of change in glucose concentration in relation to the reference ([1]; antibiotic 8 μg/mL): 18%
dC/dT (rate of change in glucose concentration) ([1]; antibiotic 8 μg/mL): 11
glucose concentration, t = 0 ([1]; antibiotic 8 μg/mL): 145
glucose concentration, t = 60 ([1]; antibiotic 8 μg/mL): 164
glucose concentration, t = 120 ([1]; antibiotic 8 μg/mL): 149
glucose concentration, t = 180 ([1]; antibiotic 8 μg/mL): 132
glucose concentration, t = 240 ([1]; antibiotic 8 μg/mL): 127
F = the rate of change in glucose concentration in relation to the reference ([1]; antibiotic 16 μg/mL): 6%
dC/dT (rate of change in glucose concentration) ([1]; antibiotic 16 μg/mL): 4
glucose concentration, t = 0 ([1]; antibiotic 16 μg/mL): 142
glucose concentration, t = 60 ([1]; antibiotic 16 μg/mL): 152
glucose concentration, t = 120 ([1]; antibiotic 16 μg/mL): 152
glucose concentration, t = 180 ([1]; antibiotic 16 μg/mL): 141
glucose concentration, t = 240 ([1]; antibiotic 16 μg/mL): 145
F = the rate of change in glucose concentration in relation to the reference ([1]; antibiotic 32 μg/mL): 5%
dC/dT (rate of change in glucose concentration) ([1]; antibiotic 32 μg/mL): 3
glucose concentration, t = 0 ([1]; antibiotic 32 μg/mL): 146
glucose concentration, t = 60 ([1]; antibiotic 32 μg/mL): 150
glucose concentration, t = 120 ([1]; antibiotic 32 μg/mL): 143
glucose concentration, t = 180 ([1]; antibiotic 32 μg/mL): 142
glucose concentration, t = 240 ([1]; antibiotic 32 μg/mL): 137
MIC ([1]; Escherichia coli, ATCC25922, E.coli, 80% threshold of reference rate of change, 60 to 180 minutes, N/A = not susceptible, no MIC value can be calculated, read-out: MIC, Measured): 4 µg/mL (≈ 9.36 µM)
F = the rate of change in glucose concentration in relation to the reference ([2]; antibiotic 0.25 μg/mL): 93%
dC/dT (rate of change in glucose concentration) ([2]; antibiotic 0.25 μg/mL): 34
glucose concentration, t = 0 ([2]; antibiotic 0.25 μg/mL): 151
glucose concentration, t = 60 ([2]; antibiotic 0.25 μg/mL): 155
glucose concentration, t = 120 ([2]; antibiotic 0.25 μg/mL): 138
glucose concentration, t = 180 ([2]; antibiotic 0.25 μg/mL): 88
glucose concentration, t = 240 ([2]; antibiotic 0.25 μg/mL): 34
F = the rate of change in glucose concentration in relation to the reference ([2]; antibiotic 0.5 μg/mL): 88%
dC/dT (rate of change in glucose concentration) ([2]; antibiotic 0.5 μg/mL): 32
glucose concentration, t = 0 ([2]; antibiotic 0.5 μg/mL): 145
glucose concentration, t = 60 ([2]; antibiotic 0.5 μg/mL): 150
glucose concentration, t = 120 ([2]; antibiotic 0.5 μg/mL): 144
glucose concentration, t = 180 ([2]; antibiotic 0.5 μg/mL): 87
glucose concentration, t = 240 ([2]; antibiotic 0.5 μg/mL): 32
F = the rate of change in glucose concentration in relation to the reference ([2]; antibiotic 1 μg/mL): 85%
dC/dT (rate of change in glucose concentration) ([2]; antibiotic 1 μg/mL): 31
glucose concentration, t = 0 ([2]; antibiotic 1 μg/mL): 148
glucose concentration, t = 60 ([2]; antibiotic 1 μg/mL): 159
glucose concentration, t = 120 ([2]; antibiotic 1 μg/mL): 142
glucose concentration, t = 180 ([2]; antibiotic 1 μg/mL): 98
glucose concentration, t = 240 ([2]; antibiotic 1 μg/mL): 31
F = the rate of change in glucose concentration in relation to the reference ([2]; antibiotic 2 μg/mL): 99%
dC/dT (rate of change in glucose concentration) ([2]; antibiotic 2 μg/mL): 36
glucose concentration, t = 0 ([2]; antibiotic 2 μg/mL): 149
glucose concentration, t = 60 ([2]; antibiotic 2 μg/mL): 169
glucose concentration, t = 120 ([2]; antibiotic 2 μg/mL): 145
glucose concentration, t = 180 ([2]; antibiotic 2 μg/mL): 98
glucose concentration, t = 240 ([2]; antibiotic 2 μg/mL): 36
F = the rate of change in glucose concentration in relation to the reference ([2]; antibiotic 4 μg/mL): 74%
dC/dT (rate of change in glucose concentration) ([2]; antibiotic 4 μg/mL): 27
glucose concentration, t = 0 ([2]; antibiotic 4 μg/mL): 150
glucose concentration, t = 60 ([2]; antibiotic 4 μg/mL): 159
glucose concentration, t = 120 ([2]; antibiotic 4 μg/mL): 146
glucose concentration, t = 180 ([2]; antibiotic 4 μg/mL): 106
glucose concentration, t = 240 ([2]; antibiotic 4 μg/mL): 27
F = the rate of change in glucose concentration in relation to the reference ([2]; antibiotic 8 μg/mL): 63%
dC/dT (rate of change in glucose concentration) ([2]; antibiotic 8 μg/mL): 23
glucose concentration, t = 0 ([2]; antibiotic 8 μg/mL): 144
glucose concentration, t = 60 ([2]; antibiotic 8 μg/mL): 149
glucose concentration, t = 120 ([2]; antibiotic 8 μg/mL): 147
glucose concentration, t = 180 ([2]; antibiotic 8 μg/mL): 104
glucose concentration, t = 240 ([2]; antibiotic 8 μg/mL): 23
F = the rate of change in glucose concentration in relation to the reference ([2]; antibiotic 16 μg/mL): 68%
dC/dT (rate of change in glucose concentration) ([2]; antibiotic 16 μg/mL): 25
glucose concentration, t = 0 ([2]; antibiotic 16 μg/mL): 148
glucose concentration, t = 60 ([2]; antibiotic 16 μg/mL): 154
glucose concentration, t = 120 ([2]; antibiotic 16 μg/mL): 148
glucose concentration, t = 180 ([2]; antibiotic 16 μg/mL): 105
glucose concentration, t = 240 ([2]; antibiotic 16 μg/mL): 25
F = the rate of change in glucose concentration in relation to the reference ([2]; antibiotic 32 μg/mL): 74%
dC/dT (rate of change in glucose concentration) ([2]; antibiotic 32 μg/mL): 27
glucose concentration, t = 0 ([2]; antibiotic 32 μg/mL): 148
glucose concentration, t = 60 ([2]; antibiotic 32 μg/mL): 155
glucose concentration, t = 120 ([2]; antibiotic 32 μg/mL): 140
glucose concentration, t = 180 ([2]; antibiotic 32 μg/mL): 102
glucose concentration, t = 240 ([2]; antibiotic 32 μg/mL): 27
MIC ([2]; Enterococcus faecalis, ATCC29212, 80% threshold, disregarded as rate of decrease was higher at 32 μg/mL, read-out: MIC value initially obtained (disregarded)): 4 µg/mL (≈ 9.36 µM)
